Laboratory results published in patent US20120040998A1, “2-ALKYL PIPERIDINE MGLUR5 RECEPTOR MODULATORS” (priority 2009, published 2012).
Where two headings read alike, the source gives them in different places.

Target: T1, human mGluR5A (Homo sapiens, UniProt P41594)
T1 construct: expressed in transfected cells
Experiment: FLIPR Ca2+ mobilization assay, potentiation in the presence of 300 nM glutamate (EC20)
Type: cell-based
From the text: The utility of the compounds in accordance with the present invention as positive allosteric modulators of metabotropic glutamate receptor activity, in particular mGluR5 activity, may be readily determined without undue experimentation by methodology well known in the art, including O'Brien et al., Molecular Pharmacology 2003, 64(3) 731-740. In particular, the compounds of the following examples had activity in reference assays by enhancing mGluR5 activity. […] Changes in intracellular Ca^2+ were measured with Fluo-4AM ester (Invitrogen/Molecular Probes), which was detected on a Fluorometric Imaging Plate Reader (FLIPR, Molecular Devices, Sunnyvale, Calif.). In a typical experiment the mGluR5 positive allosteric modulatory activity of the compounds of the present invention was determined in accordance with the following experimental method.
Cell Culture: Chinese Hamster Ovary (CHO) cells expressing human mGluR5A were maintained in growth medium containing DMEM, 10% dialyzed Fetal Bovine Serum, 50 units/mL Penicillin, 50 ug/mL Streptomycin, 2 mM L-glutamine, 1×MEM non-essential amino acids, 1 mM sodium pyruvate, 25 mM HEPES, 55 uM 2-mercaptoethanol, 5 ug/mL Puromycin, and 250 ug/mL Zeocin at 37° C. and 5% CO2. The day before the experiment, the cells were washed and seeded in “plating media” containing only DMEM, 10% dialyzed Fetal Bovine Serum, 50 units/mL Penicillin, and 50 ug/mL Streptomycin at a density of 50,000 cells/well (100 uL/well) in black 384-well clear-bottom PDL-coated plates. The cells were grown overnight at 37° C. and 6% CO2. This overnight glutamine/glutamate starvation allowed for consistent expression of the mGluR5A receptor, and the ability to add a known amount of agonist (glutamate in most cases) on the day of the experiment.
Fluorescent Ca^2+ mobilization (FLIPR) assay: The day of the experiment, the cells were washed with 37° C. Assay Buffer (Hanks Balanced Salt Solution with CaCl2 and MgCl2, 20 mM HEPES, 2.5 mM Probenecid, 0.1% BSA) with an automated plate washer (3×100 uL, aspiration 3 mm from bottom leaving ˜30 uL of buffer in each well). After washing, 30 uL of dye loading buffer (4 uM Fluo-4AM, 0.04% Pluronic acid, and 1% dialyzed FBS in assay buffer) were added to each well of the plates for 2 uM Fluo-4AM final concentration. The plates were incubated at 37° C. and 6% CO2 for 1 hour to allow for dye loading. After dye loading, the cells were washed again as above, and placed on the FLIPR. Assays were conducted with two possible scenarios: 1) To determine the potencies of the compounds, as either agonists of mGluR5 or potentiators of mGluR5 in the presence of a sub-threshold amount of glutamate, 10-point titrations of the compounds (1:3 dilution between each point, 30-0.0015 uM final concentrations) were added to the cells, followed by the addition of the EC20 of glutamate (300 nM) to the cells. 2) To determine the cooperativity of the compounds with the natural agonist (glutamate), single concentrations of the compounds were added to the cells, followed by the addition of a 10-point titration of glutamate (1:3 dilution between each point, 1000-0.05 uM final concentrations). […] For both scenarios above, operation of the FLIPR was the same. Baseline fluorescence was monitored for 10 seconds, followed by the addition of compounds diluted in Assay Buffer (1% DMSO concentration after this addition, 0.66% final DMSO concentration after agonist addition). After monitoring fluorescence for 5 minutes, during which time any intrinsic agonist activity of the compounds would have been detected, the agonist (glutamate) also diluted in assay buffer was then added to the cells. The response was then monitored for an additional 3 minutes. In scenario #1, the peak during the final 3 minutes was used for potentiator data, and the peak during the 5 minutes post compound addition was used for compound agonist data. […]

[1] = potentiation in presence of 300 nM glutamate, read-out: EC50 in potentiating/enhancing the mGluR5 receptor in the FLIPR assay
[2] = potentiation, CHO cells expressing human mGluR5A, in presence of 300 nM glutamate, inflection points, read-out: FLIPR EC50

T1 sequence (P41594 21-1180 isoform P41594-2 limits assumed): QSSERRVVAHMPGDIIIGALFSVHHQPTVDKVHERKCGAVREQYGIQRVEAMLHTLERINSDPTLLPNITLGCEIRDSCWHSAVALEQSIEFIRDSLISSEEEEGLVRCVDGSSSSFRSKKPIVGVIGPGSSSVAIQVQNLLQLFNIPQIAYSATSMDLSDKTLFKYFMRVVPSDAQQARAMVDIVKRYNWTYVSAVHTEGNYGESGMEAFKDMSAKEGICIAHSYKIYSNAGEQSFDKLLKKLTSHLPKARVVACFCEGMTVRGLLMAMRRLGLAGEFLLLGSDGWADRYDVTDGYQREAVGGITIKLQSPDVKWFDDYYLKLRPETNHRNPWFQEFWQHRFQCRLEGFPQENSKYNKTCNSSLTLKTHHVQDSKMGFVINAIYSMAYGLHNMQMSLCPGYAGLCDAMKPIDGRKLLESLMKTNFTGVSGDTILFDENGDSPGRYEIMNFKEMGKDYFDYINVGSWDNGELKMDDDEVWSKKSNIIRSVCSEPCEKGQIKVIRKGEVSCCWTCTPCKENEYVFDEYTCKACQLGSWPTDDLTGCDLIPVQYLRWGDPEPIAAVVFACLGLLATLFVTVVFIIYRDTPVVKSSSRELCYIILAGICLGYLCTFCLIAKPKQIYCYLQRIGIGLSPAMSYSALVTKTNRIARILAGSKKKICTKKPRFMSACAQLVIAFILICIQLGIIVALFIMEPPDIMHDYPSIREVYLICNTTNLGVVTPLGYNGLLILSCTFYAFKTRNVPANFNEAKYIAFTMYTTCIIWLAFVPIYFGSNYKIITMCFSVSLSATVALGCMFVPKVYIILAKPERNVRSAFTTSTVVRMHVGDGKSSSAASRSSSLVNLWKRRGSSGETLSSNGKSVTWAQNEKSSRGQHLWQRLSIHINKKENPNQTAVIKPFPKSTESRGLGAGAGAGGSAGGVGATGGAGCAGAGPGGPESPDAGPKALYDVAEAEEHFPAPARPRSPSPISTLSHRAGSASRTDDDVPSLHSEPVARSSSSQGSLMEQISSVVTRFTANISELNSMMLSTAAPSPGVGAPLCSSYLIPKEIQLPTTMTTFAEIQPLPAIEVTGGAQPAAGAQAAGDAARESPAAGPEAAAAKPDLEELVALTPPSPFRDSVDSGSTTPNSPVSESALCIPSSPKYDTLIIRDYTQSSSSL

Row | EC50 [1] [nM] | EC50 [2] [nM] | SMILES
1 | < 1000 | 124 | C[C@@H]1CC[C@H](c2noc(-c3ccc(F)cc3)n2)CN1C(=O)c1ccc(F)cc1 [Example 1-16, (2R,5S)-1-(4-fluorobenzoyl)-5-[5-(4-fluorophenyl)-1,2,4-oxadiazol-3-yl]-2-methylpiperidine]
2 | < 1000 | 25 | C[C@@H]1CC[C@H](c2noc(-c3cc(Cl)c[nH]3)n2)CN1C(=O)c1ccc(F)cc1 [Example 2-4, (2R,5S)-5-[5-(4-chloro-1H-pyrrol-2-yl)-1,2,4-oxadiazol-3-yl]-1-(4-fluorobenzoyl)-2-methylpiperidine]
3 | < 1000 | 146 | C[C@@H]1CC[C@H](c2noc(-c3cc(Cl)c[nH]3)n2)CN1C(=O)c1ccc(F)nc1 [Example 9-9, 5-({(2R,5S)-5-[5-(4-chloro-1H-pyrrol-2-yl)-1,2,4-oxadiazol-3-yl]-2-methylpiperidin-1-yl}carbonyl)-2-fluoropyridine]
4 | < 1000 | 210 | C[C@@H]1CC[C@H](c2noc(-c3ccc(F)cn3)n2)CN1C(=O)c1ccc(F)cc1 [Example 4-4, 5-Fluoro-2-{3-[(3S,6R)-1-(4-fluorobenzoyl)-6-methylpiperidin-3-yl]-1,2,4-oxadiazol-5-yl}pyridine]
5 | < 1000 | 486 | C[C@H]1CC[C@@H](c2noc(-c3cc(Cl)c[nH]3)n2)CN1C(=O)c1ccc(F)cc1 [Example 2-3, (2S,5R)-5-[5-(4-chloro-1H-pyrrol-2-yl)-1,2,4-oxadiazol-3-yl]-1-(4-fluorobenzoyl)-2-methylpiperidine]
6 | < 1000 | 19 | C[C@@H]1CC[C@H](c2nc(-c3cc(Cl)c[nH]3)no2)CN1C(=O)c1ccc(F)cc1 [Example 5-5, (2R,5S)-5-[3-(4-Chloro-1H-pyrrol-2-yl)-1,2,4-oxadiazol-5-yl]-1-(4-fluorobenzoyl)-2-methylpiperidine]
7 | < 1000 | 55 | COc1cc(C(=O)N2C[C@@H](c3nc(-c4cc(Cl)c[nH]4)no3)CC[C@H]2C)ccn1 [Example 9-22, 4-({(2R,5S)-5-[3-(4-chloro-1H-pyrrol-2-yl)-1,2,4-oxadiazol-5-yl]-2-methylpiperidin-1-yl}carbonyl)-2-methoxypyridine]
8 | < 1000 | 91 | C[C@@H]1CC[C@H](c2nc(-c3cc(Cl)c[nH]3)no2)CN1C(=O)c1ccc(F)nc1 [Example 9-18, 5-({(2R,5S)-5-[3-(4-chloro-1H-pyrrol-2-yl)-1,2,4-oxadiazol-5-yl]-2-methylpiperidin-1-yl}carbonyl)-2-fluoropyridine]
